Data as given in ChEMBL document CHEMBL5634151, “Anti-adipogenic action of a novel oxazole derivative through activation of AMPK pathway” (Eur J Med Chem, 2023).
Activity calls are given as the source filed them. The rule behind the calls is not given here.

Key:
3T3-L1 [1] = assay: Cytotoxicity against mouse 3T3-L1 pre-adipocyte cells assessed as reduction in cell viability >20 uM incubated for 48 hrs by MTT assay; format: toxicity, cell-based; conditions: 3t3-l1, 48 h
3T3-L1 [2] = assay: Cytotoxicity against mouse 3T3-L1 pre-adipocyte cells assessed as reduction in cell viability at 20 uM incubated for 48 hrs by MTT assay; format: toxicity, cell-based; conditions: 3t3-l1, 48 h
3T3-L1 [3] = assay: Anti-adipogenic activity in MDI-cocktail differentiated mouse 3T3-L1 pre-adipocyte cells assessed as inhibition of adipogenesis at 20 uM by Oil Red O staining based microscopic analysis relative to control; format: functional
3T3-L1 [4] = assay: Anti-adipogenic activity in MDI-cocktail differentiated mouse 3T3-L1 pre-adipocyte cells assessed as inhibition of adipogenesis at 30 uM by Oil Red O staining based microscopic analysis; format: functional, cell-based
3T3-L1 [5] = assay: Anti-adipogenic activity in MDI-cocktail differentiated mouse 3T3-L1 pre-adipocyte cells assessed as inhibition of adipogenesis by Oil Red O staining based microscopic analysis; format: functional, cell-based

Row | SMILES | Activity (3T3-L1 [1]) | Activity (3T3-L1 [2]) | other results
1 | CC(C)=CC[n+]1cccc(-c2ncc(-c3ccccc3)o2)c1.[Br-] | Toxic |  | 
2 | COc1ccc(-c2cnc(-c3ccc[n+](Cc4ccc(F)cc4)c3)o2)cc1.[Br-] | Toxic |  | 
3 | Clc1ccc(-c2cnc(-c3ccc[n+](Cc4ccc(Cl)c(Cl)c4)c3)o2)cc1.[Br-] | Toxic | Toxic | 
4 | COc1ccc(-c2cnc(-c3ccc[n+](C/C=C(/C)CCC=C(C)C)c3)o2)cc1.[Br-] | Toxic | Toxic | 
5 | Clc1ccc(C[n+]2cccc(-c3ncc(-c4ccccc4)o3)c2)cc1.[Br-] | Toxic |  | 
6 | Clc1ccc(C[n+]2cccc(-c3ncc(-c4ccc(Cl)cc4)o3)c2)cc1.[Br-] | Toxic |  | 
7 | CC(C)=CCC/C(C)=C\C[n+]1cccc(-c2ncc(-c3ccc(Cl)cc3)o2)c1.[Br-] | Toxic | Toxic | 
8 | Cc1cccc(C[n+]2cccc(-c3ncc(-c4ccccc4)o3)c2)c1.[Br-] | Toxic |  | 
9 | Br.O=[N+]([O-])c1ccc(C[n+]2cccc(-c3ncc(-c4ccccc4)o3)c2)cc1 | Toxic |  | 
10 | FC(F)(F)c1ccc(C[n+]2cccc(-c3ncc(-c4ccc(Cl)cc4)o3)c2)cc1.[Br-] | Toxic |  | 
11 | Clc1ccc(C[n+]2cccc(-c3ncc(-c4ccccc4)o3)c2)cc1Cl.[Br-] | Toxic | Non-Toxic | inhibition at 20 µM (3T3-L1 [3]): > 70%
12 | Cc1ccc(-c2cnc(-c3ccc[n+](Cc4ccc(C(F)(F)F)cc4)c3)o2)cc1.[Br-] | Toxic | Non-Toxic | inhibition at 20 µM (3T3-L1 [3]): > 70%
13 | COc1ccc(-c2cnc(-c3ccc[n+](CC=C(C)C)c3)o2)cc1.[Br-] | Toxic |  | 
14 | Br.Cc1ccc(-c2cnc(-c3ccc[n+](Cc4ccc([N+](=O)[O-])cc4)c3)o2)cc1 | Toxic |  | 
15 | Cc1ccc(-c2cnc(-c3ccc[n+](Cc4ccc(Cl)c(Cl)c4)c3)o2)cc1.[Br-] | Toxic | Toxic | 
16 | Br.O=[N+]([O-])c1ccc(C[n+]2cccc(-c3ncc(-c4ccc(Cl)cc4)o3)c2)cc1 | Toxic |  | 

Row | SMILES | Activity (3T3-L1 [1]) | Activity (3T3-L1 [2]) | other results
17 | COc1ccc(-c2cnc(-c3ccc[n+](Cc4ccc(Cl)c(Cl)c4)c3)o2)cc1.[Br-] | Toxic | Non-Toxic | inhibition at 20 µM (3T3-L1 [3]): > 70%
18 | COc1ccc(-c2cnc(-c3ccc[n+](Cc4ccc(C(F)(F)F)cc4)c3)o2)cc1.[Br-] | Toxic |  | 
19 | Fc1ccc(C[n+]2cccc(-c3ncc(-c4ccc(Cl)cc4)o3)c2)cc1.[Br-] | Toxic |  | 
20 | Cc1ccc(-c2cnc(-c3ccc[n+](Cc4ccc(F)cc4)c3)o2)cc1.[Br-] | Toxic |  | 
21 | CC(C)=CCC/C(C)=C\C[n+]1cccc(-c2ncc(-c3ccc(C)cc3)o2)c1.[Br-] | Toxic | Toxic | 
22 | Cc1cccc(C[n+]2cccc(-c3ncc(-c4ccc(Cl)cc4)o3)c2)c1.[Br-] | Toxic | Non-Toxic | inhibition at 20 µM (3T3-L1 [3]): > 70%
23 | Cc1ccc(-c2cnc(-c3ccc[n+](Cc4ccc(Cl)cc4)c3)o2)cc1.[Br-] | Toxic |  | 
24 | Fc1ccc(C[n+]2cccc(-c3ncc(-c4ccccc4)o3)c2)cc1.[Br-] | Toxic |  | 
25 | COc1ccc(-c2cnc(-c3ccc[n+](Cc4ccc(Cl)cc4)c3)o2)cc1.[Br-] | Toxic |  | 
26 | CC(C)=CC[n+]1cccc(-c2ncc(-c3ccc(Cl)cc3)o2)c1.[Br-] | Toxic |  | 
27 | Br.COc1ccc(-c2cnc(-c3ccc[n+](Cc4ccc([N+](=O)[O-])cc4)c3)o2)cc1 | Toxic |  | 
28 | CC(C)=CCOc1ccc(-c2cnc(-c3cccnc3)o2)cc1 |  |  | Activity (3T3-L1 [4]): Active; IC50 (3T3-L1 [5]; read-out: IC50): 103 µM; IC50 (3T3-L1 [5]; read-out: pIC50 (converted)): 104 µM
29 | FC(F)(F)c1ccc(C[n+]2cccc(-c3ncc(-c4ccccc4)o3)c2)cc1.[Br-] | Toxic |  | 
30 | CC(C)=CC[n+]1cccc(-c2ncc(-c3ccc(C)cc3)o2)c1.[Br-] | Toxic | Toxic | 
31 | COc1ccc(-c2cnc(-c3ccc[n+](Cc4cccc(C)c4)c3)o2)cc1.[Br-] | Toxic |  | 
